T/C data for 22 compounds are collected here from PubChem BioAssay AID330 (DTP/NCI, 2004).

Molecules are shown by their SMILES. Values joined by “and” are separate entries in the source; they are usually repeats but may differ in a detail not shown here. Identical values can stand only once. Inconclusive results and toxic doses are left out.

In the experiment the test system is P388 leukemia ip, CD2F1 mice, survival T/C. Nature of the experiment: NCI In Vivo Anticancer Drug Screen. Data for tumor model P388 Leukemia (intraperitoneal) in CD2F1 (CDF1) mice. The following applies: endpoint: median survival time, higher = longer survival. In outline: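 Mice carrying the transplanted tumor received test compound or vehicle. Survival was recorded in each group, and the value is the treated-group measurement divided by that of the vehicle-treated control group.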

[1] abbreviates: dose: 15.0 mg/kg/injection, schedule: Q01DX005 (ip), vehicle: saline.
Setting [2] is: dose: 30.0 mg/kg/injection, schedule: Q01DX005 (ip), vehicle: saline.
Setting [3] is: dose: 60.0 mg/kg/injection, schedule: Q01DX005 (ip), vehicle: saline.
Where [4] appears, read: dose: 50.0 mg/kg/injection, schedule: Q01DX009 (ip), vehicle: saline.
Setting [5] is: dose: 100.0 mg/kg/injection, schedule: Q01DX009 (ip), vehicle: saline.
The mark [6] stands for this setting: dose: 200.0 mg/kg/injection, schedule: Q01DX009 (ip), vehicle: saline.
Where [7] appears, read: dose: 50.0 mg/kg/injection, schedule: Q01DX009 (ip), vehicle: saline with Tween-80.
[8] abbreviates: dose: 100.0 mg/kg/injection, schedule: Q01DX009 (ip), vehicle: saline with Tween-80.
Where [9] appears, read: dose: 200.0 mg/kg/injection, schedule: Q01DX009 (ip), vehicle: saline with Tween-80.
[10] abbreviates: dose: 60.0 mg/kg/injection, schedule: Q01DX005 (ip), vehicle: saline with Tween-80.
Setting [11] is: dose: 120.0 mg/kg/injection, schedule: Q01DX005 (ip), vehicle: saline with Tween-80.
The mark [12] stands for this setting: dose: 240.0 mg/kg/injection, schedule: Q01DX005 (ip), vehicle: saline with Tween-80.
The mark [13] stands for this setting: dose: 120.0 mg/kg/injection, schedule: Q01DX005 (ip), vehicle: saline.
[14] abbreviates: dose: 240.0 mg/kg/injection, schedule: Q01DX005 (ip), vehicle: saline.

On to `Cc1cccc(NC(=O)N(CCCl)N=O)c1`, for which the T/C is 186 % of control (dose: 0.38 mg/kg/injection, schedule: Q04DX003 (ip), vehicle: saline with Tween-80); 218 % of control (dose: 0.75 mg/kg/injection, schedule: Q04DX003 (ip), vehicle: saline with Tween-80); 159 % of control (dose: 1.5 mg/kg/injection, schedule: Q01DX009 (ip), vehicle: saline); 272 % of control (dose: 1.5 mg/kg/injection, schedule: Q04DX003 (ip), vehicle: saline with Tween-80); 206 % of control (dose: 3.0 mg/kg/injection, schedule: Q01DX009 (ip), vehicle: saline); 254 % of control (dose: 3.13 mg/kg/injection, schedule: Q01DX009 (ip), vehicle: saline with Tween-80). Besides, the T/C is 190 % of control (dose: 3.13 mg/kg/injection, schedule: Q04DX003 (ip), vehicle: saline); 95 % of control (dose: 6.25 mg/kg/injection, schedule: Q01DX009 (ip), vehicle: saline with Tween-80); 200 % of control (dose: 6.25 mg/kg/injection, schedule: Q04DX003 (ip), vehicle: saline with Tween-80); 209 % of control (dose: 6.25 mg/kg/injection, schedule: Q04DX003 (ip), vehicle: saline); 276 % of control (dose: 8.25 mg/kg/injection, schedule: Q04DX003 (ip), vehicle: saline with Tween-80); 272 % of control and 285 % of control (dose: 12.5 mg/kg/injection, schedule: Q04DX003 (ip), vehicle: saline with Tween-80). Where the note is “dose: 12.5 mg/kg/injection, schedule: Q04DX003 (ip), vehicle: saline”, the T/C is 118 % of control.
For `O=[N+]([O-])c1cc([N+](=O)[O-])c2ccc(S(=O)(=O)O)cc2c1O`, the T/C (dose: 12.5 mg/kg/injection, schedule: Q04DX002 (ip), vehicle: saline) was 100 % of control; the T/C under setting [1] was 105 % of control; the T/C under setting [2] was 99 % of control; the T/C (dose: 50.0 mg/kg/injection, schedule: Q04DX002 (ip), vehicle: saline) was 93 % of control; the T/C under setting [3] is 100 % of control and 97 % of control; the T/C (dose: 100.0 mg/kg/injection, schedule: Q01DX001 (ip), vehicle: saline with Tween-80) was 102 % of control. In addition, the T/C (dose: 100.0 mg/kg/injection, schedule: Q04DX002 (ip), vehicle: saline with Tween-80) is 98 % of control and the T/C (dose: 200.0 mg/kg/injection, schedule: Q01DX001 (ip), vehicle: saline with Tween-80) is 96 % of control.
For the compound `Cc1ccnc(Sc2ccc([N+](=O)[O-])cc2[N+](=O)[O-])n1`, the T/C was 102 % of control under setting [4], 104 % of control under setting [5] and 100 % of control under setting [6].
For `Nc1nc2c(-c3ccc([N+](=O)[O-])cc3)nnn2c2ccccc12`, the T/C is, setting by setting: under setting [7], 95 % of control; under setting [8], 86 % of control; under setting [9], 95 % of control.
As to `N/C(=N\OC(=O)Nc1ccccc1)c1ccccc1`, the T/C is, setting by setting: under setting [10], 97 % of control; under setting [11], 94 % of control; under setting [12], 91 % of control.
Turning to `COc1ccc2oc3c(ccc[n+]3C)c(=O)c2c1`, the T/C reads like this: (dose: 30.0 mg/kg/injection, schedule: Q01DX005 (ip), vehicle: saline with Tween-80) 107 % of control; under setting [10], 120 % of control; under setting [11], 107 % of control.
On to `COc1ccc(C(=O)C(C)(c2nc3n(c2O)C(=N)N=N3)c2nc3n(c2O)C(=N)N=N3)cc1` (stereo not drawn), for which the T/C reads like this: under setting [3], 100 % of control; under setting [13], 102 % of control; under setting [14], 106 % of control.
In the same order, the values of `CCOc1ccc(/C=N/NC(=O)c2ccc(O)c(OC)c2)cc1OC` are 100 % of control, 102 % of control and 95 % of control.
As to `CCc1ccc[n+](-c2ccncc2CC)c1`, the T/C reads like this: under setting [1], 96 % of control; under setting [2], 100 % of control; under setting [3], 106 % of control and 88 % of control.
As for `COc1ccc(-n2c(C)nc3c(cnn3CN3CCCCC3)c2=O)cc1`, the T/C is, setting by setting: (dose: 60.0 mg/kg/injection, schedule: Q01DX005 (ip), vehicle: Klucel (hydroxypropylcellulose) (HPC)) 102 % of control; (dose: 120.0 mg/kg/injection, schedule: Q01DX005 (ip), vehicle: Klucel (hydroxypropylcellulose) (HPC)) 102 % of control; (dose: 240.0 mg/kg/injection, schedule: Q01DX005 (ip), vehicle: Klucel (hydroxypropylcellulose) (HPC)) 94 % of control.
`N#CCc1c(C2(c3ccncc3)OCCO2)[nH]c2ccccc12`: the T/C is, setting by setting: (dose: 100.0 mg/kg/injection, schedule: Q01DX001 (ip), vehicle: saline) 104 % of control; (dose: 200.0 mg/kg/injection, schedule: Q01DX001 (ip), vehicle: saline) 113 % of control; (dose: 400.0 mg/kg/injection, schedule: Q01DX001 (ip), vehicle: saline) 98 % of control.
As for `CN(C)CCOC(=O)Nc1cc(Cl)cc(Cl)c1`, the T/C was 103 % of control under setting [10] and 103 % of control under setting [11].
In the case of `Cc1cc(-c2c(C)[nH]n(-c3cc(C)c4cc(F)ccc4n3)c2=O)n(-c2cc(C)c3cc(F)ccc3n2)n1`, the T/C under setting [10] is 102 % of control, the T/C under setting [11] was 101 % of control and the T/C under setting [12] is 98 % of control.
As for `O=C1c2ccccc2C(=O)c2c3c(cc([N+](=O)[O-])c21)OCO3`, the T/C by setting is: under setting [10], 100 % of control; under setting [11], 89 % of control; under setting [12], 87 % of control.
Take `CCN(CC)CCO/N=c1\nc(-c2ccccc2)c2cc(Cl)ccc2s1`: the T/C runs as follows: under setting [4], 100 % of control; under setting [5], 103 % of control; under setting [6], 104 % of control.
With `CCC12OCCN1CC(C)O2` (stereo not drawn), the T/C is, setting by setting: under setting [7], 98 % of control; under setting [8], 111 % of control; under setting [9], 113 % of control; (dose: 400.0 mg/kg/injection, schedule: Q01DX009 (ip), vehicle: saline with Tween-80) 119 % of control.
On to `Oc1ccccc1-c1cc(-c2ccccc2)nc(NCCCCNc2nc(-c3ccccc3)cc(-c3ccccc3O)n2)n1`, for which the T/C reads like this: (dose: 12.5 mg/kg/injection, schedule: Q01DX005 (ip), vehicle: Klucel (hydroxypropylcellulose) (HPC)) 97 % of control; (dose: 25.0 mg/kg/injection, schedule: Q01DX005 (ip), vehicle: Klucel (hydroxypropylcellulose) (HPC)) 97 % of control; (dose: 50.0 mg/kg/injection, schedule: Q01DX005 (ip), vehicle: Klucel (hydroxypropylcellulose) (HPC)) 94 % of control; (dose: 100.0 mg/kg/injection, schedule: Q01DX005 (ip), vehicle: Klucel (hydroxypropylcellulose) (HPC)) 88 % of control.
`CN(C)c1ccc(/C=C\C(=O)c2ccc(C(=O)/C=C/c3ccc(N(C)C)cc3)cc2)cc1`: the T/C is 99 % of control (dose: 12.5 mg/kg/injection, schedule: Q01DX009 (ip), vehicle: saline with Tween-80); 96 % of control (dose: 25.0 mg/kg/injection, schedule: Q01DX009 (ip), vehicle: saline with Tween-80); 90 % of control under setting [7].
With `CC(CCc1cccc2ccccc12)(C(=O)O)C(=O)O`, the T/C was 90 % of control (dose: 50.0 mg/kg/injection, schedule: Q01DX009 (ip), vehicle: saline sonified); 100 % of control (dose: 100.0 mg/kg/injection, schedule: Q01DX009 (ip), vehicle: saline sonified); 90 % of control (dose: 200.0 mg/kg/injection, schedule: Q01DX009 (ip), vehicle: saline sonified).
For `O=C1c2cccc(NCCCNCCO)c2C(=O)c2cccc(NCCCNCCO)c21`, the T/C runs as follows: (dose: 12.5 mg/kg/injection, schedule: Q04DX002 (ip), vehicle: distilled water + Tween-80) 110 % of control; (dose: 25.0 mg/kg/injection, schedule: Q04DX002 (ip), vehicle: distilled water + Tween-80) 104 % of control; (dose: 50.0 mg/kg/injection, schedule: Q04DX002 (ip), vehicle: distilled water + Tween-80) 111 % of control.
In the case of `COc1cccc(C(O)c2ccncc2)c1OC` (stereo not drawn), the T/C by setting is: (dose: 25.0 mg/kg/injection, schedule: Q01DX009 (ip), vehicle: water) 90 % of control; (dose: 50.0 mg/kg/injection, schedule: Q01DX009 (ip), vehicle: water) 90 % of control; (dose: 100.0 mg/kg/injection, schedule: Q01DX009 (ip), vehicle: water) 93 % of control; (dose: 200.0 mg/kg/injection, schedule: Q01DX009 (ip), vehicle: water) 90 % of control.
Take `COCCOC(=O)Nc1c(Cl)cccc1Cl`: the T/C is 98 % of control under setting [10], 100 % of control under setting [11] and 100 % of control under setting [12].
